From PMC10454409, “Hybrids of Sterically Hindered Phenols and Diaryl Ureas: Synthesis, Switch from Antioxidant Activity to ROS Generation and Induction of Apoptosis” (International Journal of Molecular Sciences, 2023)

Test: DPPH antiradical assay
Conditions: DPPH 100 μM
Description: Figure 4 Antioxidant potential of the tested compounds. (a) Inhibition of lipid peroxidation (LPO) in rat brain homogenates (2 mg/mL) initiated by Fe(II) ions (concentration of 500 µM) in the tested compounds at a concentration of 100 µM. (b) Concentration dependences of LPO inhibition for the studied compounds in the concentration range from 1 µM to 100 µM. (c) Oxygen Radical Absorbance Capacity (ORAC) of the studied compounds and ORAC values expressed as Trolox equivalent (TE). (d) DPPH antiradical activity of the compounds under study and DPPH values expressed as TE. The concentration of studied compounds and Trolox was 100 µM, the concentration of DPPH was 100 μM, and the concentration of AAPH was […]. Statistical significance was assessed using one-way ANOVA and Dunnett’s multiple comparison tests, where **** p < 0.0001, *** p < 0.001 and ** p < 0.01 vs. control. […]

Q: With `CCOP(=O)(OCC)C(c1cc(C(C)(C)C)c(O)c(C(C)(C)C)c1)c1ccc(NC(=O)Nc2ccc([N+](=O)[O-])cc2)cc1NC(=O)Nc1ccc([N+](=O)[O-])cc1` (centres unmarked) [17b] as the molecule, how does the DPPH antiradical activity (compound 100 µM) read?
A: The DPPH antiradical activity was 64.8 ± 0.7%.

Q: What about the “DPPH value (Trolox equivalent)” value (compounds and Trolox 100 µM) of the same molecule?
A: Its value is 1.27 Trolox equivalent.
